Experimental data as given in patent US11524938B2, “Aromatic sulfonamide derivatives” (Bayer Pharma Aktiengesellschaft, priority 2016, dated 2022).
“And” between values parts separate entries of the source, which are not always exact repeats. Equal entries are not always repeated.

Molecular target: T1, human P2X4 (Homo sapiens, UniProt Q99571)
T1 sequence (Q99571 1-388): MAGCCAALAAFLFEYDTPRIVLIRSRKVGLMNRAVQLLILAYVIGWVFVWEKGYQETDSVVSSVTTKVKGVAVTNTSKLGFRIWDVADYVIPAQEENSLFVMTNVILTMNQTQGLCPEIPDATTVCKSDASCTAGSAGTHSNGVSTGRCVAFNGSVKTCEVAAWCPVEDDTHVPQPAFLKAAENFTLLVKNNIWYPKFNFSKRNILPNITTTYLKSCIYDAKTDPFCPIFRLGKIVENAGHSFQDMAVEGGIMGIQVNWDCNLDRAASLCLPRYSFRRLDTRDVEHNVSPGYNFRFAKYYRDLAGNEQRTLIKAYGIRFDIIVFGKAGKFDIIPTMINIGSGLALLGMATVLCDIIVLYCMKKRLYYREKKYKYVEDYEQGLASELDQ
Assay: Human P2X4 HEK Cell FLIPR Assay
Assay type: cell-based
Conditions: agonist Bz-ATP at EC80; for Emax: HEK293, HEK293 cells, percentage of maximal inhibition, read-out: Human P2X4 HEK Cells (FLIPR Assay) avg Efficacy [%]; for IC50: HEK293 cells, individual values listed where some fall outside detection range
Procedure, shortened: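 HEK293 cells stably expressing human P2X4, Fluo8-AM loaded 30 min at 37° C, then compound 30 min at room temperature (0.5% DMSO, pH 7.4 buffer with 1.8 mM CaCl2). Bz-ATP at its daily-determined EC80 added; calcium fluorescence read over 120 sec; IC50 from peak RFU normalized to agonist control, triplicates.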

Structure (SMILES)	Emax	IC50
NS(=O)(=O)c1cc(NC(=O)Cc2ccccc2F)ccc1-c1ccc(Cl)nc1 [Example 460, N-[4-(6-Chloropyridin-3-yl)-3-sulfamoylphenyl]-2-(2-fluorophenyl)acetamide]	84%	0.646 µM
Nc1cnn(-c2ccc(NC(=O)Cc3ccccc3Cl)cc2S(N)(=O)=O)c1 [Example 505]	93%	0.131 µM
Cc1cc(-c2ccc(NC(=O)Cc3ccccc3Cl)cc2S(N)(=O)=O)n(C)n1 [Example 351, 2-(2-Chlorophenyl)-N-[4-(1,3-dimethyl-1H-pyrazol-5-yl)-3-sulfamoylphenyl]acetamide]	88%	0.051 µM
NS(=O)(=O)c1cc(NC(=O)Cc2ccccc2Cl)ccc1-c1cncs1 [Example 418, 2-(2-Chlorophenyl)-N-[3-sulfamoyl-4-(1,3-thiazol-5-yl)phenyl]acetamide]	91%	0.015 µM
COCCn1cc(-c2ccc(NC(=O)Cc3c(F)cccc3Cl)cc2S(N)(=O)=O)cn1 [Example 350, 2-(2-Chloro-6-fluorophenyl)-N-{4-[1-(2-methoxyethyl)-1H-pyrazol-4-yl]-3-sulfamoylphenyl}acetamide]	87%	0.049 µM
NS(=O)(=O)c1cc(NC(=O)Cc2ccccc2Cl)ccc1-n1cnc(C(F)(F)F)n1 [Example 7, 2-(2-Chlorophenyl)-N-{3-sulfamoyl-4-[3-(trifluoromethyl)-1H-1,2,4-triazol-1-yl]-phenyl}acetamide]	73%	3.08 µM
NS(=O)(=O)c1cc(NC(=O)Cc2ccc(C(F)F)cc2)ccc1-c1cncc(C(F)(F)F)c1 [Example 458, 2-[4-(Difluoromethyl)phenyl]-N-{3-sulfamoyl-4-[5-(trifluoromethyl)pyridin-3-yl]phenyl}acetamide]	85%	1.07 µM
COc1ccccc1CC(=O)Nc1ccc(-c2cnn(C(F)F)c2)c(S(N)(=O)=O)c1 [Example 226, N-{4-[1-(Difluoromethyl)-1H-pyrazol-4-yl]-3-sulfamoylphenyl}-2-(2-methoxyphenyl)-acetamide]	104%	0.111 µM
CC(C)Oc1ncc(-c2ccc(NC(=O)Cc3ccccc3Cl)cc2S(N)(=O)=O)cn1 [Example 311, 2-(2-Chlorophenyl)-N-{4-[2-(propan-2-yloxy)pyrimidin-5-yl]-3-sulfamoylphenyl}acetamide]	104%	0.285 µM
Cc1ccc(CC(=O)Nc2ccc(-c3ccc(Cl)nc3)c(S(N)(=O)=O)c2)c(F)c1 [Example 471, N-[4-(6-Chloropyridin-3-yl)-3-sulfamoylphenyl]-2-(2-fluoro-4-methylphenyl)acetamide]	92%	0.269 µM
NS(=O)(=O)c1cc(NC(=O)Cc2ccccc2Cl)ccc1-n1cc(C(=O)N2CCC2)cn1 [Example 441, N-{4-[4-(Azetidin-1-ylcarbonyl)-1H-pyrazol-1-yl]-3-sulfamoylphenyl}-2-(2-chlorophenyl)acetamide]	91%	0.185 µM
NS(=O)(=O)c1cc(NC(=O)Cc2cc(F)ccc2Cl)ccc1-n1cnc(C(F)(F)F)n1 [Example 58, 2-(2-Chloro-5-fluorophenyl)-N-{3-sulfamoyl-4-[3-(trifluoromethyl)-1H-1,2,4-triazol-1-yl]phenyl}acetamide]	54%	0.073 µM
COCCc1cnn(-c2ccc(NC(=O)Cc3ccccc3F)cc2S(N)(=O)=O)c1 [Example 265, 2-(2-Fluorophenyl)-N-{4-[4-(2-methoxyethyl)-1H-pyrazol-1-yl]-3-sulfamoyl-phenyl}acetamide]	84%	0.352 µM
NS(=O)(=O)c1cc(NC(=O)Cc2cccnc2Cl)ccc1-n1cc(Br)cn1 [Example 67, N-[4-(4-Bromo-1H-pyrazol-1-yl)-3-sulfamoylphenyl]-2-(2-chloropyridin-3-yl)-acetamide]	98%	1.51 µM
NS(=O)(=O)c1cc(NC(=O)Cc2ccccc2Cl)ccc1-c1cc[nH]c1 [Example 527, 2-(2-Chlorophenyl)-N-[4-(1H-pyrrol-3-yl)-3-sulfamoylphenyl]acetamide]	86%	0.125 µM
COc1ccc(CC(=O)Nc2ccc(-c3cncc(C(F)(F)F)c3)c(S(N)(=O)=O)c2)cc1 [Example 455, 2-(4-Methoxyphenyl)-N-{3-sulfamoyl-4-[5-(trifluoromethyl)pyridin-3-yl]phenyl}acetamide]	74%	0.005 µM
NS(=O)(=O)c1cc(NC(=O)Cc2ccccc2F)ccc1-c1cnn(C2CC2)c1 [Example 344, N-[4-(1-Cyclopropyl-1H-pyrazol-4-yl)-3-sulfamoylphenyl]-2-(2-fluorophenyl)-acetamide]	102%	0.044 µM

Structure (SMILES)	Emax	IC50
Cc1ncc(-c2ccc(NC(=O)Cc3ccccc3Cl)cc2S(N)(=O)=O)cn1 [Example 313, 2-(2-Chlorophenyl)-N-[4-(2-methylpyrimidin-5-yl)-3-sulfamoylphenyl]acetamide]	82%	0.713 µM
NS(=O)(=O)c1cc(NC(=O)Cc2ccc(F)cc2Cl)ccc1-n1cc(Cl)cn1 [Example 88, 2-(2-Chloro-4-fluorophenyl)-N-[4-(4-chloro-1H-pyrazol-1-yl)-3-sulfamoyl-phenyl]acetamide]	87%	0.08 µM
NS(=O)(=O)c1cc(NC(=O)Cc2ccc(C(F)(F)F)cc2Cl)c(C(F)(F)F)cc1-n1cc(F)cn1 [Example 538, 2-[2-Chloro-4-(trifluoromethyl)phenyl]-N-[4-(4-fluoro-1H-pyrazol-1-yl)-5-sulfamoyl-2-(trifluoromethyl)phenyl]acetamide]	83%	3.91 µM
Cc1ncn(-c2ccc(NC(=O)Cc3ccccc3Cl)cc2S(N)(=O)=O)n1 [Example 5, 2-(2-Chlorophenyl)-N-[4-(3-methyl-1H-1,2,4-triazol-1-yl)-3-sulfamoylphenyl]-acetamide]	91%	0.249 µM
CC(C)n1cc(-c2ccc(NC(=O)Cc3ccccc3F)cc2S(N)(=O)=O)cn1 [Example 343, 2-(2-Fluorophenyl)-N-{4-[1-(propan-2-yl)-1H-pyrazol-4-yl]-3-sulfamoylphenyl}-acetamide]	101%	0.042 µM
Cc1cccc(CC(=O)Nc2ccc(-n3cc(C(F)(F)F)cn3)c(S(N)(=O)=O)c2)c1 [Example 124, 2-(3-Methylphenyl)-N-{3-sulfamoyl-4-[4-(trifluoromethyl)-1H-pyrazol-1-yl]phenyl}-acetamide]	62%	0.166 µM
Cn1nc(C(F)(F)F)cc1-c1ccc(NC(=O)Cc2ccccc2F)cc1S(N)(=O)=O [Example 368, 2-(2-Fluorophenyl)-N-{4-[1-methyl-3-(trifluoromethyl)-1H-pyrazol-5-yl]-3-sulfamoylphenyl}acetamide]	100%	0.133 µM
CCOc1ncc(-c2ccc(NC(=O)Cc3ccccc3Cl)cc2S(N)(=O)=O)cn1 [Example 309, 2-(2-Chlorophenyl)-N-[4-(2-ethoxypyrimidin-5-yl)-3-sulfamoylphenyl]acetamide]	93%	0.317 µM
COc1cncc(-c2ccc(NC(=O)Cc3ccccc3Cl)cc2S(N)(=O)=O)c1 [Example 341, 2-(2-Chlorophenyl)-N-[4-(5-methoxypyridin-3-yl)-3-sulfamoylphenyl]acetamide]	86%	0.041 µM
N#Cc1cncc(-c2ccc(NC(=O)Cc3ccccc3Cl)cc2S(N)(=O)=O)c1 [Example 282, 2-(2-Chlorophenyl)-N-[4-(5-cyanopyridin-3-yl)-3-sulfamoylphenyl]acetamide]	80%	0.056 µM
Cc1ccc(F)c(CC(=O)Nc2ccc(-n3cc(F)cn3)c(S(N)(=O)=O)c2)c1Cl [Example 159, 2-(2-Chloro-6-fluoro-3-methylphenyl)-N-[4-(4-fluoro-1H-pyrazol-1-yl)-3-sulfamoyl-phenyl]acetamide]	82%	0.012 µM
N#Cc1cnn(-c2ccc(NC(=O)Cc3cccc(C(F)(F)F)c3Cl)cc2S(N)(=O)=O)c1 [Example 206, 2-[2-Chloro-3-(trifluoromethyl)phenyl]-N-[4-(4-cyano-1H-pyrazol-1-yl)-3-sulfamoylphenyl]acetamide]	98%	0.029 µM
NS(=O)(=O)c1cc(NC(=O)Cc2ccccc2C(F)(F)F)ccc1-c1cncc(C(F)(F)F)c1 [Example 304, N-{3-Sulfamoyl-4-[5-(trifluoromethyl)pyridin-3-yl]phenyl}-2-[2-(trifluoromethyl)phenyl]acetamide]	65%	0.073 µM
NS(=O)(=O)c1cc(NC(=O)C(O)c2ccccc2Cl)ccc1-n1cc(C(F)(F)F)cn1 (stereo not drawn) [Example 498, 2-(2-Chlorophenyl)-2-hydroxy-N-{3-sulfamoyl-4-[4-(trifluoromethyl)-1H-pyrazol-1-yl]phenyl}ethanamide]	50%	18.2 µM and > 25 µM
NS(=O)(=O)c1cc(NC(=O)Cc2cccc(F)c2)ccc1-n1cc(F)cn1 [Example 144, 2-(3-Fluorophenyl)-N-[4-(4-fluoro-1H-pyrazol-1-yl)-3-sulfamoylphenyl]acetamide]	62%	0.292 µM
NS(=O)(=O)c1cc(NC(=O)Cc2ccccc2OC(F)(F)F)ccc1-n1cc(F)cn1 [Example 160, N-[4-(4-Fluoro-1H-pyrazol-1-yl)-3-sulfamoylphenyl]-2-[2-(trifluoromethoxy)phenyl]-acetamide]	89%	0.058 µM
